Assay results taken from publication PMC5834943 (ACS chemical biology, 2017).

Key:
[1] = molecular target: T1, branched-chain aminotransferase (MtIlvE) (Mycobacterium tuberculosis, UniProt P9WQ75); test: biochemical; assay type: binding
[2] = molecular target: T1, branched-chain aminotransferase (MtIlvE); test: […]; assay type: biochemical; settings: read-out: Ki

T1 sequence (P9WQ75 whole entry): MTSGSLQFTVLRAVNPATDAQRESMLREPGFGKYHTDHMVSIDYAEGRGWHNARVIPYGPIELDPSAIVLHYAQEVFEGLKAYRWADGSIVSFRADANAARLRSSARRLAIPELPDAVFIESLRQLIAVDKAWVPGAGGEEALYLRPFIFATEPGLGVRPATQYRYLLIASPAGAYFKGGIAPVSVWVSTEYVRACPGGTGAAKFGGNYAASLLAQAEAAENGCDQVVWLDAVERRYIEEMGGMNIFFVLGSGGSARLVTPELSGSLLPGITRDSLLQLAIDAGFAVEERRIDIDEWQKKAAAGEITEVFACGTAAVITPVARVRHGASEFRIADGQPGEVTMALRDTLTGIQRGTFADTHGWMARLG

`N[C@@H]1CON=C1O` [DCS, D-Cycloserine] gave a kinact/KI [1] of 0.12 M⁻¹ s⁻¹.
In the case of `N[C@H]1CONC1=O` [LCS, L-cycloserine], the KI (inactivation) [2] is reported as 88 µM.
